Legend:
Assay in all cases: two-electrode voltage clamp, Xenopus oocytes
Type in all cases: cell-based
AgamOR10/AgamOrco = target: T1, AgamOR10/AgamOrco (Anopheles gambiae, UniProt B5U0U7); conditions: 0.01-1 mM; -80 mV, pH 7.4; outward (inhibitory) current
T1 sequence (B5U0U7 1-375): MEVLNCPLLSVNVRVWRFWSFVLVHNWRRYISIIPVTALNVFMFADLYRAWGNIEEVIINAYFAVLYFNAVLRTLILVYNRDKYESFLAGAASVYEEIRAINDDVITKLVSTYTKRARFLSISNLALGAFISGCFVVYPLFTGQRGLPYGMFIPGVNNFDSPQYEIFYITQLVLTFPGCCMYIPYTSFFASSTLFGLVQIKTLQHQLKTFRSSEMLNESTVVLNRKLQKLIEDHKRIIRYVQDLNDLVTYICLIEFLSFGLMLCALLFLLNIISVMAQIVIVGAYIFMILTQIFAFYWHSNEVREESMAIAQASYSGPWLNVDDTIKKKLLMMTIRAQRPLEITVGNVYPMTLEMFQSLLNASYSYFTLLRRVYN
T1 sequence (Q7QCC7 1-478 partner): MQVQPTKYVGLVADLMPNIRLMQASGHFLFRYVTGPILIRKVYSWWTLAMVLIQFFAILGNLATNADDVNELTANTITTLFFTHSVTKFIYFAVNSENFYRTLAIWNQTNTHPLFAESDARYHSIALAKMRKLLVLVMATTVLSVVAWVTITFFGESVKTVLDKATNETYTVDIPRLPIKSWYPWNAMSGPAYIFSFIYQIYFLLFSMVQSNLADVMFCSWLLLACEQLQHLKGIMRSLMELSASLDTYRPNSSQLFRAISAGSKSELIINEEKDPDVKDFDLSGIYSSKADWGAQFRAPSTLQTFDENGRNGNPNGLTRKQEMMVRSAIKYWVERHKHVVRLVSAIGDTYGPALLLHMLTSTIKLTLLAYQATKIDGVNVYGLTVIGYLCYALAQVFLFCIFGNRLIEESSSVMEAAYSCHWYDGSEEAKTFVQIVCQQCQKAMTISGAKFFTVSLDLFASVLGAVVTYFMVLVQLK

AgamOR40 = target: T2, AgamOR40 (Anopheles gambiae, UniProt Q7PR01); conditions: 0.01-1 mM; -80 mV, pH 7.4; inward current (agonist)
T2 sequence (Q7PR01 1-454): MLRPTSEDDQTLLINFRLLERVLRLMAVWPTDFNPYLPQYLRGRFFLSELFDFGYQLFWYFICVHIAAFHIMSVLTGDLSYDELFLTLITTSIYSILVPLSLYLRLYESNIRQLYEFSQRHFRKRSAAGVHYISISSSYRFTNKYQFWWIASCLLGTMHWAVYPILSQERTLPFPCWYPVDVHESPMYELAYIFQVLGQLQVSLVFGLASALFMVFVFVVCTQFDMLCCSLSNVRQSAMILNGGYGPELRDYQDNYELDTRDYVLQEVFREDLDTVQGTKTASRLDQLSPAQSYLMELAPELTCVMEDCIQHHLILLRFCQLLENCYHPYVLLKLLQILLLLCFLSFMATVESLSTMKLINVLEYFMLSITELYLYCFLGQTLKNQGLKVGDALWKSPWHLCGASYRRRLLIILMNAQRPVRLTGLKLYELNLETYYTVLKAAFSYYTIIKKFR
T2 sequence (Q7QCC7 1-478 partner): T1 sequence (Q7QCC7 1-478 partner)

AgamOR8 = target: T3, AgamOR8 (Anopheles gambiae, UniProt Q7PUT5); conditions: 0.1 uM to 0.1 mM; -80 mV, pH 7.4; inward current (agonist)
T3 sequence (Q7PUT5 1-399): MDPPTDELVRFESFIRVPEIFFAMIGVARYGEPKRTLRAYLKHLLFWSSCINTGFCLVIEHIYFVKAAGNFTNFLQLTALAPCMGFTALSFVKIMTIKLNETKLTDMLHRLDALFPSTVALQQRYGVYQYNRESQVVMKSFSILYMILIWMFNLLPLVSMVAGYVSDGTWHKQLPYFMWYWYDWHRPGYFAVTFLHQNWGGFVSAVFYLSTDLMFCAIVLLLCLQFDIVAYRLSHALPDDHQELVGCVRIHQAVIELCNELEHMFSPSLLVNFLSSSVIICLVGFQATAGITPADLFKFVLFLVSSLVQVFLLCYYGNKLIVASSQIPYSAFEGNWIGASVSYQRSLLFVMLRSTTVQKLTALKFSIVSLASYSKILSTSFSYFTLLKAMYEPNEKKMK
T3 sequence (Q7QCC7 1-478 partner): T1 sequence (Q7QCC7 1-478 partner)

| Compound | two-electrode voltage clamp, Xenopus oocytes (AgamOR40) | also measured |
| --- | --- | --- |
| CC/C=C\C[C@H]1C(=O)CC[C@@H]1CC(=O)OC [BDR-4, methyl jasmonate] |  | two-electrode voltage clamp, Xenopus oocytes (AgamOR10/AgamOrco): The strongest outward currents were obtained with BDR-4 (methyl jasmonate) |
| CC12CCC(C1)C(C)(C)C2=O (stereo not shown) [fenchone] | generated dose-dependent inward currents in response to DEET as well as to its best ligand, fenchone |  |
| CCN(CC)C(=O)c1cccc(C)c1 [DEET] | generated dose-dependent inward currents in response to DEET as well as to its best ligand, fenchone |  |
| C=CC(O)CCCCC (stereo not shown) [1-octen-3-ol] |  | two-electrode voltage clamp, Xenopus oocytes (AgamOR8): generated robust, dose-dependent inward currents in response to 1-octen-3-ol |
